# Reference: ChEMBL document CHEMBL1201862, “PubChem BioAssay data set” (2004)
# The source made the active and inactive calls.
# Columns and labels:
# [1] = A cytotoxicity screen of small molecule inhibitors of the PhoP region in Salmonella typhi identified in the primary screen. [Related pubchem assays: 1850, 1864, 1985 ]; format: functional
# [2] = target: T1, Neuropeptides B/W receptor type 1 (Homo sapiens, UniProt P48145); assay: Fluorescence-based dose response cell-based high throughput screening assay to identify antagonists of the G-protein coupled receptor 7 (GPR7). [Related pubchem assays: 1952 (Screening assay (GPR7 antagonists).), 1880 (Summary AID.)]; format: functional
# T1 sequence (P48145 whole entry): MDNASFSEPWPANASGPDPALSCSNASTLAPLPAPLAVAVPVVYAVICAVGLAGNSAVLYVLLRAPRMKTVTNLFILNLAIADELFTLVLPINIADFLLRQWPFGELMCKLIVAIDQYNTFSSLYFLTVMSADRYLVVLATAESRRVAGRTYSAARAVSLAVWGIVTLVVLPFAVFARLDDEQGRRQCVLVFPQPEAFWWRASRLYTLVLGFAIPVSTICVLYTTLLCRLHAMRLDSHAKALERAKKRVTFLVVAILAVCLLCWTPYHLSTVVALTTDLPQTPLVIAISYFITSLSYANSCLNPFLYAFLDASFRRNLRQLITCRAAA
# [3] = target: Melanin-concentrating hormone receptor 1 (Homo sapiens, UniProt Q99705); assay: Fluorescence-based counterscreen for antagonists of the G-protein coupled receptor 7 (GPR7): cell-based high throughput dose response assay to identify antagonists of the melanin-concentrating hormone receptor 1 (MCHR1).; format: functional
# Melanin-concentrating hormone receptor 1, sequence (Q99705 whole entry): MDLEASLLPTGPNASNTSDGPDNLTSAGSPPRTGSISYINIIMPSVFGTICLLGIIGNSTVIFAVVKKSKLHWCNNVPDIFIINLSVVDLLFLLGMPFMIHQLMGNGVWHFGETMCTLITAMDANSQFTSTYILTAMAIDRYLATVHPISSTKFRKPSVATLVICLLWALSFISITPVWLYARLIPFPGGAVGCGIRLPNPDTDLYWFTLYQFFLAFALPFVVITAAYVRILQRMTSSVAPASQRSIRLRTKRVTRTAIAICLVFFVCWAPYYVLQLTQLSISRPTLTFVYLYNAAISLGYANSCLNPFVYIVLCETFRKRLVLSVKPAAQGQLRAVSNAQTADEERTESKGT
# [4] = target: T2, Long-chain-fatty-acid--AMP ligase FadD28 (Mycobacterium tuberculosis, UniProt P9WQ59); assay: Fluorescence polarization aasay to screen for inhibitors that compete for the binding of FadD28 to a bisubstrate Measured in Biochemical System Using Plate Reader - 2147-01_Inhibitor_Dose_CherryPick_Activity.; format: functional, Mycobacterium tuberculosis H37Rv
# T2 sequence (P9WQ59 whole entry): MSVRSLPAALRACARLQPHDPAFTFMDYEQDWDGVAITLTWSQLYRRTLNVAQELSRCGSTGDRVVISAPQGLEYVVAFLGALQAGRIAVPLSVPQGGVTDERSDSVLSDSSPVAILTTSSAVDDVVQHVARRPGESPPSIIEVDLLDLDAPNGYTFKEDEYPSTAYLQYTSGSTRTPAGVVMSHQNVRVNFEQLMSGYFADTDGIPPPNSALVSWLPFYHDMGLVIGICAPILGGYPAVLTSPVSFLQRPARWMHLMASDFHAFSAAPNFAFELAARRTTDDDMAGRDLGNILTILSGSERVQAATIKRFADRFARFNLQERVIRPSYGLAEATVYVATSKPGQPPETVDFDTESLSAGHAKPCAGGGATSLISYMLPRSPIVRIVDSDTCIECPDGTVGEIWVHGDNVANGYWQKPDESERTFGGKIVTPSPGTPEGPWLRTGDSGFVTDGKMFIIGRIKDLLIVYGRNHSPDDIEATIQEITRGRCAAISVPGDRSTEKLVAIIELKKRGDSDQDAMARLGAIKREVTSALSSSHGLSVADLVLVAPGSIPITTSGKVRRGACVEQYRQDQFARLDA
# Nonstructural protein 1 = Nonstructural protein 1 (Influenza A virus, UniProt Q194T2); format: functional, Influenza A virus (A/California/07/2009(H1N1))
# Nonstructural protein 1, sequence (Q194T2 whole entry): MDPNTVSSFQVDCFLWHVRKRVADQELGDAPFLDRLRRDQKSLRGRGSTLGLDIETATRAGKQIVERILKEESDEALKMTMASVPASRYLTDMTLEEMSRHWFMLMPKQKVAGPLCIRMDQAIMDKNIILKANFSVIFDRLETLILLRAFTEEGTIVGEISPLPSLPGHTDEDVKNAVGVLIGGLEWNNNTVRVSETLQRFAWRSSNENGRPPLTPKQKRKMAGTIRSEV
# [5] = A Cell Based Secondary Assay To Explore Cytotoxicity of Compounds that Sensitize Mycobacterium Tuberculosis to Beta-Lactam Antibiotics.; format: functional
# [6] = target: T3, Short transient receptor potential channel 4 (Mus musculus, UniProt Q9QUQ5); assay: mouse TRPC4 channel activators, dose response, cell-based, HEK293 TRPC4/mu-opioid, Fluo-4 calcium (AID 434937); format: functional
# T3 sequence (Q9QUQ5 whole entry): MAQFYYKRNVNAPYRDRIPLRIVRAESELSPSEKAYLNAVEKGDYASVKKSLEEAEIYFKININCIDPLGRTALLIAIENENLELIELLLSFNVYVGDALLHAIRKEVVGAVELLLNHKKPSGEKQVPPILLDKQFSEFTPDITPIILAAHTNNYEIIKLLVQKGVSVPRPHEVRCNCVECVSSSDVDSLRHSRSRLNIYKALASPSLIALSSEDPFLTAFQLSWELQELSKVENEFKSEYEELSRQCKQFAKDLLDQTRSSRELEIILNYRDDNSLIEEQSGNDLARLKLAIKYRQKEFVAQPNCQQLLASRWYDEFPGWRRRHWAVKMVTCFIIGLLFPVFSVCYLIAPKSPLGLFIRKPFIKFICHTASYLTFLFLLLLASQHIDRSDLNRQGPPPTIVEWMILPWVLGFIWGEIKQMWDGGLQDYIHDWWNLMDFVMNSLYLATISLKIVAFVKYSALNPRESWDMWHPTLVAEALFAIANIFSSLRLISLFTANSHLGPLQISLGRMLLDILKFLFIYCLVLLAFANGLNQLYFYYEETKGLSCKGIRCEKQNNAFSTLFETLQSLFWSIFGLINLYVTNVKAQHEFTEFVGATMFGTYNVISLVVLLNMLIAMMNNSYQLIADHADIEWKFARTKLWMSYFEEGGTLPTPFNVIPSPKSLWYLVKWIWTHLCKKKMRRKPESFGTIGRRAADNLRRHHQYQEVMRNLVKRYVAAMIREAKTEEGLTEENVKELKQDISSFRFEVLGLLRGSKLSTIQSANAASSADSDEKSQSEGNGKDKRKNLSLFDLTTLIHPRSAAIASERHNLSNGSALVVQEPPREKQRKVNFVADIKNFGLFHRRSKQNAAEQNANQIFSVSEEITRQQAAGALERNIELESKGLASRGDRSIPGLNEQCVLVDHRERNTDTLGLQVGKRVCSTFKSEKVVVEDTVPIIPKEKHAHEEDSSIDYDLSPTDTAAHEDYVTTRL
# [7] = target: T3, Short transient receptor potential channel 4; assay: mouse TRPC4 channel inhibitors, dose response, cell-based, HEK293 TRPC4/mu-opioid, Fluo-4 calcium (AID 434942); format: functional;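 also: potency of inhibitors blocking the TRPC4 calcium response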
# [8] = inhibitors of HIV Env-driven cell fusion, dose response, cherry-pick (AID 652057); format: functional, cell-based
# [9] = inhibitors of clade B AD8 Env fusion, dose response, cell-based, cherry-pick (AID 652062); format: functional;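 also: luciferase signal from cell-cell fusion driven by HIV-1 clade B AD8 Env; potency is for inhibitors of fusion seen as a drop in luminescence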
# [10] = ZM109 Env clade C HIV-1 fusion inhibitors, dose response, HeLa effector, CEM target cells, luciferase, cherry-pick (AID 652058); format: functional, cell-based
# [11] = off-target signal loss in HeLa-CEM21 co-culture – HeLa F-luc CTL cells, cherry-picked, counter-screen for HIV-1 Env fusion inhibitor project, dose response (AID 652040); format: functional, cell-based;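 also: potency for signal decrease marking cytotoxic or nonspecific inhibition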
# [12] = CEM21 lymphoblast cell cytotoxicity, dose response, cytotoxicity control for viral fusion inhibitor project, CellTiter-Glo luminescence, cherry-picked (AID 652042); format: functional, cell-based;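 also: potency for signal decrease meaning cytotoxicity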
# [13] = Luminescence Cell-Based Dose Retest to Confirm Inhibitors of Cancer Stem Cells. [Related pubchem assays (depositor defined):AID2717, AID2721]; format: functional; details: Homo sapiens
# [14] = target: T4, Polyadenylate-binding protein 1 (Homo sapiens, UniProt P11940); assay: PABP1 MLLE–PAM2 binding inhibitor potency, dose response, biochemical, fluorescence polarization, FITC-PAM2 peptide (AID 602259); format: functional; details: read-out: IC50_Mean
# T4 sequence (P11940 whole entry): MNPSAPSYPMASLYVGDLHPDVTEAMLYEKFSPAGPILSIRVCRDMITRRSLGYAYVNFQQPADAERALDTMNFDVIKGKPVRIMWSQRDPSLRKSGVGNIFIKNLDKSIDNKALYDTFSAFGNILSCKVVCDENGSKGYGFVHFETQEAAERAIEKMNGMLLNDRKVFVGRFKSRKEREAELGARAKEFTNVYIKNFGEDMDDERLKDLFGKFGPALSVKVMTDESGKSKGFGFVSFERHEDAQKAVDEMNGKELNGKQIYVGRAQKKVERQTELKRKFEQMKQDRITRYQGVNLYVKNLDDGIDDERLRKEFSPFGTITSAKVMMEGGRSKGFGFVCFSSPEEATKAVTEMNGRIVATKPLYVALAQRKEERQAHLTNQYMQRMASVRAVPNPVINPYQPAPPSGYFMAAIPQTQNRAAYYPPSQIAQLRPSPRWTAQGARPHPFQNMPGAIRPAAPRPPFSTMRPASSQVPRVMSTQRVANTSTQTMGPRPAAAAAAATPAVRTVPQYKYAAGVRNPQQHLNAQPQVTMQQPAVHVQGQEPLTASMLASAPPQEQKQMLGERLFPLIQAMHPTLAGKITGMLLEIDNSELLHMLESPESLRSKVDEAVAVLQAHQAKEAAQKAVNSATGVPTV
# [15] = target: T4, Polyadenylate-binding protein 1; assay: PABP1 MLLE–PAM2 interaction inhibitors, dose response, miRNA deadenylation inhibitor project, biochemical, fluorescence polarization, Cy5-PAM2 peptide, secondary (AID 602260); format: functional; details: read-out: IC50_Mean
# [16] = target: Glucose-6-phosphate 1-dehydrogenase (Homo sapiens, UniProt P11413); assay: human G6PD enzyme inhibitors, dose response, selectivity assay for P. falciparum G6PD inhibitor project, biochemical, fluorescence (AID 504792); format: functional
# Glucose-6-phosphate 1-dehydrogenase, sequence (P11413 whole entry): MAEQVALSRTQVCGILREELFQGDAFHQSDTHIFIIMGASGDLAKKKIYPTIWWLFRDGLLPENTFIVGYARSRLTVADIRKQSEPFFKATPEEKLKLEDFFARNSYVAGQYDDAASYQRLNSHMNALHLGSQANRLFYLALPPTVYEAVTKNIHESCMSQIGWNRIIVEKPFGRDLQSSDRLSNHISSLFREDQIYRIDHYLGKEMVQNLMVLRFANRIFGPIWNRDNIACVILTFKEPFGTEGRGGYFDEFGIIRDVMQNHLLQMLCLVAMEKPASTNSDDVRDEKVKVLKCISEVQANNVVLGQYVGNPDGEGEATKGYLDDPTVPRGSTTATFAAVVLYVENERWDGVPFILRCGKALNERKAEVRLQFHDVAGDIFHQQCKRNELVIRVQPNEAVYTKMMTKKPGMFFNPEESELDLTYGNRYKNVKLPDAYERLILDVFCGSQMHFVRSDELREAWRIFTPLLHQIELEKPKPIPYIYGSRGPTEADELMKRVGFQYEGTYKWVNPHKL
# Genome polyprotein = Genome polyprotein (dengue virus type 2, UniProt P29990); assay: Dengue-2 NS5 methyltransferase inhibitors, primary screen, biochemical, confirmation dose response (AID 588689); format: functional
# Genome polyprotein, sequence (P29990 2492-3391 limits assumed): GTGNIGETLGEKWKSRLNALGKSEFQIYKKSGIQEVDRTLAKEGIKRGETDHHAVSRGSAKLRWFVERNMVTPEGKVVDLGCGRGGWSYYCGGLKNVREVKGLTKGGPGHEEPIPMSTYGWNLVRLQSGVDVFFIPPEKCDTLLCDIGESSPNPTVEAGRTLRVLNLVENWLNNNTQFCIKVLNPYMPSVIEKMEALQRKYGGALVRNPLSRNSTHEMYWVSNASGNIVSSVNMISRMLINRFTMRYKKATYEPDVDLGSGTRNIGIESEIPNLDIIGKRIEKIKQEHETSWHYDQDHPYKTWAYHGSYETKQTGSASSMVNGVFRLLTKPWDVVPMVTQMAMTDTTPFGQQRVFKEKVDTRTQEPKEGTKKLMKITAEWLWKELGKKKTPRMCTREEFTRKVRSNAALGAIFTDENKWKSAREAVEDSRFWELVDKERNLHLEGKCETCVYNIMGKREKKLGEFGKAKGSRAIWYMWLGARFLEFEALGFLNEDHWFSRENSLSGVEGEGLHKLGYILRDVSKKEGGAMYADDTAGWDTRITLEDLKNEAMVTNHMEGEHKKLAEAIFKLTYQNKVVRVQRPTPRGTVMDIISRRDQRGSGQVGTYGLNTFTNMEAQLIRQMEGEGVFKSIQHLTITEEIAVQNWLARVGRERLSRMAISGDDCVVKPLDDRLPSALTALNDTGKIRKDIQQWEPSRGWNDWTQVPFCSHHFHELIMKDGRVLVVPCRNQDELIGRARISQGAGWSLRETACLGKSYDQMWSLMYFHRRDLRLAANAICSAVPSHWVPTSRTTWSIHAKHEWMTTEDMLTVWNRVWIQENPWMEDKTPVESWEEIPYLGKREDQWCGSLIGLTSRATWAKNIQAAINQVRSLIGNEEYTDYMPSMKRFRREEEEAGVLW
# [17] = Shn3 3'UTR reporter inhibitors, dose response, cell-based, Clone20 osteoblasts, firefly luciferase, cherry-picked (AID 624132); format: functional;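 also: firefly luciferase luminescence from reporter carrying the Shn3 3'UTR in osteoblasts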
# [18] = HepG2 cell cytotoxicity, dose response, cytotoxicity control for Shn3 inhibitor project, CellTiter-Glo, cherry-picked (AID 624134); format: functional, cell-based
# Protein Wnt-3a = Protein Wnt-3a (Mus musculus, UniProt P27467); assay: Wnt3a-driven reporter signaling inhibition, dose response, selectivity assay for Gli-SUFU antagonist project, Wnt-LIGHT cells, luminescence (AID 651570); format: functional; details: read-out: IC50_Mean;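 also: Wnt-LIGHT reporter cells stimulated with conditioned medium from Wnt3a-producing cells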
# Protein Wnt-3a, sequence (P27467 whole entry): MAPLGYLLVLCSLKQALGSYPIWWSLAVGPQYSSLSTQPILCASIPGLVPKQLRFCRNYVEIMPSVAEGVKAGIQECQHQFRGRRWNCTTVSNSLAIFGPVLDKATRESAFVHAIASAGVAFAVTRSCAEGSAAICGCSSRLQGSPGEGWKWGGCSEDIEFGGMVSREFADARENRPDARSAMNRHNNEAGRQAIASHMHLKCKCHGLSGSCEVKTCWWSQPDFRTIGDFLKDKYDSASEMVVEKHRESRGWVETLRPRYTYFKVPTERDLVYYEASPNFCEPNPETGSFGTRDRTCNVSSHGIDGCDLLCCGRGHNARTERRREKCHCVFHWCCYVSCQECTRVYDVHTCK
# [19] = Luminescence Cell-Based Dose Response HTS to Identify Inhibitors of 5'UTR Stem-Loop Driven Prion Protein mRNA Translation in H4 Neuroglioblastoma Cells. [Related pubchem assays: 1827 (Project Summary), 1813 (Primary HTS)]; format: functional
# [20] = control 3'UTR Renilla luciferase suppression, dose response, counter-screen for Shn3 inhibitor project, cell-based, Clone20-Shn3RL, cherry-picked (AID 624133); format: functional
# [21] = inhibitors of SNCA 5'UTR-driven reporter translation, confirmation, H4 neuroglioma cells, luminescence (AID 1988); format: functional, cell-based
# [22] = inhibitors of firefly luciferase expression or activity, dose response, H4 neuroglioma cells, luminescence (AID 1990); format: functional, cell-based
# [23] = P. falciparum Dd2 growth inhibitors, dose response, SYBR Green, dry powder samples (AID 1159566); format: functional, cell-based;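 also: potency for growth inhibition with lower SYBR green DNA signal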
# [24] = P. falciparum Dd2 growth inhibitors, dose response, SYBR Green, cherry-picked samples (AID 1159567); format: functional, cell-based
# [25] = P. falciparum ATP4 D1247Y mutant growth inhibitors, dose response, NITD609-resistant line, SYBR Green, dry powder (AID 1159571); format: functional, cell-based;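 also: parasites synchronized at ring stage by sorbitol before testing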
# [26] = P. falciparum 3D7-ScDHODH growth inhibitors, dose response, SYBR Green, dry powder samples (AID 1159570); format: functional, cell-based;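 also: parasite growth measured after 72 hours of compound exposure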
smiles,measurement,setting,value
Cc1ccnc(NC(=O)CCC(=O)N(CC(=O)NC2CCCCC2)C2CCCC2)c1,EC50,[1],> 50 µM (active)
CCCCn1c(N)c(N(CC(C)C)C(=O)c2ccc(COc3ccccc3)o2)c(=O)[nH]c1=O,IC50,[2],> 43.8 µM (not active)
same,IC50,[3],> 43.8 µM (not active)
O=C(NN1C(=O)/C(=C/c2nc3ccccc3[nH]2)SC1=S)c1ccccc1,AC50,[4],70.5 µM (active)
same,IC50,Nonstructural protein 1,> 100 µM (active)
Cc1ncc(CCl)c2c1OC(C)(C)OC2,CC50,[5],> 40 µM (active)
CC1CCCN(CCOCCOc2ccccc2-c2ccccc2)C1 (stereo not drawn),EC50,[6],0.421 µM (active)
same,EC50,[7],0.335 µM (active)
C=CCc1cc(Cl)ccc1OCCCNC(C)CC (stereo not drawn),CC50,[5],> 40 µM (active)
c1cc(N2CCCC2)ccc1C(c1nnnn1C1CCCCC1)N1CCOCC1 (stereo not drawn),EC50,[1],> 50 µM (active)
CCCCC(c1nnnn1C1CCCC1)N1CCN(C2CCCCC2)CC1 (stereo not drawn),IC50,[2],> 43.8 µM (not active)
same,IC50,[3],> 43.8 µM (not active)
Cc1nc(Nc2nc(O)cc(CSc3nc4ccccc4[nH]3)n2)nc2ccccc12,AC50,[8],6.8 µM (active)
same,AC50,[9],10.3 µM (active)
same,AC50,[10],7.51 µM (active)
same,AC50,[11],8.15 µM (active)
same,AC50,[12],11.2 µM (active)
same,AC50,[13],3.58 µM (active)
N=C(NC(=O)c1ccccc1NC(=O)c1ccccc1)Nc1nc2ccccc2o1,CC50,[5],> 40 µM (active)
Nc1c(-c2ccccc2)sc2ccc3ccccc3[n+]12,IC50,[14],> 66 µM (inactive)
same,IC50,[15],> 66 µM (inactive)
same,EC50,[1],> 50 µM (active)
CCC1(CC)Cc2ccccc2C(N)=C1C#N,IC50,[16],> 80 µM (inactive)
same,CC50,[5],> 40 µM (active)
O=C1NN(c2cccc(Br)c2)C(=O)/C1=C\c1ccccc1,AC50,[4],> 100 µM (inactive)
same,AC50,[13],3.04 µM (active)
same,IC50,Genome polyprotein,35.1 µM (active)
Cc1cccc(NC(=O)Cn2c(=O)oc3cc(S(=O)(=O)N4CCCC4)ccc32)n1,AC50,[4],34.8 µM (active)
Cc1ccc(S(=O)(=O)N(C)C[C@@H]2Oc3cc(C#CC4CCCC4)ccc3S(=O)(=O)N([C@H](C)CO)C[C@H]2C)cc1,AC50,[9],35.2 µM (active)
same,AC50,[10],2.34 µM (active)
same,AC50,[12],61.4 µM (active)
CCc1ccc(N(C(=O)c2csnn2)C(C(=O)NC2CCCCC2)c2ccncc2)cc1 (stereo not drawn),IC50,[2],> 43.8 µM (not active)
same,IC50,[3],> 43.8 µM (not active)
COc1ccccc1NS(=O)(=O)c1cccc(C(=O)NC2CCN(Cc3ccccc3)CC2)c1,AC50,[17],1.95 µM (active)
same,AC50,[18],0.52 µM (active)
same,EC50,[6],0.944 µM (active)
same,IC50,Protein Wnt-3a,4.3 µM (active)
same,EC50,[7],0.376 µM (active)
same,EC50,[19],> 120 µM (not active)
same,AC50,[20],1.8 µM (active)
same,EC50,[21],> 120 µM (not active)
same,EC50,[22],> 120 µM (not active)
CC(C)(C)[S+]([O-])N1Cc2cc(C(=O)NCc3ccc(Oc4ccccc4)cc3)nc(-c3cccc(-c4cccc(F)c4)c3)c2[C@@H]1CCO (stereo partly drawn),AC50,[23],0.658 µM (active)
same,AC50,[24],1.23 µM (active)
same,AC50,[25],0.417 µM (active)
same,AC50,[26],0.831 µM (active)
CCN(CC(=O)Nc1cccc(C#N)c1)CC(=O)Nc1cccc(OC)c1,IC50,[2],> 43.8 µM (not active)
same,IC50,[3],27.9 µM (not active)
